Eight compounds from PubChem BioAssay (NCI) can be followed below.

Values joined by “and” are separate entries in the source; they are usually repeats but may differ in a detail not shown here. Equal values may be shown once.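 Growth conditions: 96-well plates. Treatment: test compound, 48 hours, 5 concentrations. Analysis: linear interpolation between bracketing concentrations; unreached endpoints set to highest concentration. The concentration for 50% growth inhibition is given as GI50. Definition used: TGI = concentration required for complete inhibition of growth.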 Some results are limits rather than exact numbers.

Some test systems named below: CAKI-1 renal; SF-295 CNS; MCF7 breast; DU-145 prostate; A498 renal; 786-0 renal; SN12C renal; HS 578T breast; KM12 colon; HCC-2998 colon.
What all share (test): inhibition of tumour cell growth, NCI panel, 48 h

`N#Cc1ccc(/C=C/C(=O)c2ccccc2)cc1`: the GI50 with CAKI-1 renal was 15.1 µM and 9.59 µM; in the assay with SF-295 CNS, 16.4 µM and 11.8 µM; in the assay with MCF7 breast it was 2.44 µM and 1.71 µM; in the assay with DU-145 prostate, 13.4 µM and 12.3 µM; in the assay with A498 renal, 14.3 µM and 12.3 µM; in the assay on 786-0 renal, 15.9 µM and 14.6 µM. For the same compound, the GI50 is 14.8 µM and 14.2 µM in the assay on SN12C renal; 18.3 µM and 2.13 µM in the assay with HS 578T breast; 1.79 µM and 1.83 µM with KM12 colon; 5.82 µM and 5.13 µM with HCC-2998 colon. Also, the TGI with CAKI-1 renal was 29.6 µM and 22.8 µM; with SF-295 CNS it was 32.1 µM and 25.4 µM; in the assay on MCF7 breast it was 9.25 µM and 5.38 µM; in the assay with DU-145 prostate it was 26.2 µM and 24.9 µM; with A498 renal, 29.5 µM and 24.9 µM; with 786-0 renal, > 52.2 µM and 29.2 µM. For the same compound, the TGI in the assay with SN12C renal was 28.3 µM and 27.7 µM; in the assay on HS 578T breast, 50.9 µM and 5.64 µM; in the assay with KM12 colon it was 3.46 µM and 3.54 µM; in the assay on HCC-2998 colon it was 10.7 µM and 10.3 µM.
With `COc1cc(/C=C/c2ccccn2)cc(OC)c1OC`, the TGI with CAKI-1 renal, in the assay with SF-295 CNS, in the assay on MCF7 breast, in the assay on DU-145 prostate, with A498 renal and in the assay on 786-0 renal was over 10 µM each time. In addition, the TGI with SN12C renal, in the assay on HS 578T breast, in the assay on KM12 colon and in the assay on HCC-2998 colon was over 10 µM throughout.
For `Fc1ccc(-c2c(-c3ccncc3)[nH]c3nccnc23)cc1`, the GI50 with CAKI-1 renal is 4.52 µM; in the assay on SF-295 CNS, over 15.1 µM; with MCF7 breast, 7.39 µM; in the assay with DU-145 prostate it was 7.32 µM; in the assay with A498 renal it was 4.76 µM; in the assay with 786-0 renal, 11.3 µM. In addition, the GI50 with SN12C renal was 7.84 µM; in the assay on HS 578T breast, 8.03 µM; in the assay with KM12 colon, 8.92 µM; with HCC-2998 colon, 12 µM. Moreover, the TGI in the assay with CAKI-1 renal was over 19.9 µM; in the assay on SF-295 CNS, over 25 µM; with MCF7 breast, over 25 µM; in the assay with DU-145 prostate, over 22 µM; with A498 renal it was over 23.2 µM; with 786-0 renal it was over 25 µM. Besides, the TGI in the assay on SN12C renal, with HS 578T breast, in the assay with KM12 colon and in the assay on HCC-2998 colon was over 25 µM in each case.
With `FC(F)(F)c1ccc(NCc2nc3ccccc3[nH]2)cc1`, the GI50 with CAKI-1 renal is 19.4 µM; in the assay on SF-295 CNS, 18.7 µM; in the assay on MCF7 breast it was 21.5 µM; in the assay with DU-145 prostate it was 47.9 µM; with A498 renal it was 12.4 µM; with 786-0 renal, 30.7 µM. Moreover, the GI50 was 29.7 µM in the assay on SN12C renal, 23.3 µM in the assay with HS 578T breast, 29.7 µM in the assay on KM12 colon and 23.8 µM with HCC-2998 colon. The TGI is 49.4 µM with CAKI-1 renal; 65.8 µM with SF-295 CNS; 53.2 µM in the assay on MCF7 breast; over 100 µM in the assay with DU-145 prostate; 46.2 µM with A498 renal; over 100 µM in the assay with 786-0 renal. In addition, the TGI is over 100 µM in the assay with SN12C renal, 79 µM with HS 578T breast, 87.7 µM in the assay on KM12 colon and 73.5 µM with HCC-2998 colon.
For `COc1ccc(/C=C2/CN(CCC#N)C/C(=C\c3ccc(OC)cc3)C2=O)cc1`, the GI50 in the assay with CAKI-1 renal was 2.82 µM; in the assay with MCF7 breast it was 1.72 µM; in the assay with DU-145 prostate it was 4.25 µM; with A498 renal, 5.03 µM; with 786-0 renal, 1.99 µM; with SN12C renal, 2.18 µM. Further, the GI50 was 2.98 µM in the assay with HS 578T breast, 1.72 µM in the assay with KM12 colon and 1.9 µM with HCC-2998 colon. For the same compound, the TGI is over 100 µM with CAKI-1 renal; over 100 µM in the assay on MCF7 breast; over 100 µM in the assay on DU-145 prostate; 21.5 µM in the assay on A498 renal; 4.33 µM in the assay on 786-0 renal; 6.31 µM in the assay on SN12C renal. The values for the TGI in the assay on HS 578T breast, in the assay with KM12 colon and in the assay with HCC-2998 colon were 64.4 µM, 3.83 µM and 3.47 µM, respectively.
Regarding `COc1cc(Cn2c(SCC(=O)Nc3ccc(Cl)cc3)nc3ccccc3c2=O)cc(OC)c1OC`, the GI50 in the assay with CAKI-1 renal is 11.3 µM; with SF-295 CNS it was 5.54 µM; with MCF7 breast, 8.97 µM; in the assay with DU-145 prostate it was 18.1 µM; in the assay on A498 renal it was 2.42 µM; with 786-0 renal, 3.37 µM. The GI50 in the assay with SN12C renal was 16.9 µM; in the assay with HS 578T breast, 3.95 µM; with KM12 colon, 32.3 µM; in the assay with HCC-2998 colon it was 26.6 µM. In addition, the TGI is 58.1 µM with CAKI-1 renal; 18.4 µM with SF-295 CNS; 55.1 µM with MCF7 breast; over 100 µM in the assay with DU-145 prostate; 12.2 µM with A498 renal; 12.3 µM in the assay on 786-0 renal. The TGI with SN12C renal is over 100 µM; in the assay with HS 578T breast it was 40.3 µM; in the assay on KM12 colon, over 100 µM; with HCC-2998 colon, over 100 µM.
For the compound `COC(=O)[C@]12CC[C@@H](C)[C@H](C)[C@@H]1C1=CC[C@@H]3[C@@]4(C)CC(=O)[C@H](O)[C@@](C)(CO)[C@@H]4C(=O)C[C@@]3(C)[C@]1(C)CC2`, the GI50 in the assay on CAKI-1 renal was 11.5 µM; in the assay with SF-295 CNS it was 10.6 µM; with MCF7 breast, 12.1 µM; in the assay with DU-145 prostate, 11.2 µM; in the assay on A498 renal, 19.4 µM; with 786-0 renal, 12.4 µM. The GI50 in the assay on SN12C renal is 12.4 µM; with HS 578T breast, 7.98 µM; in the assay on KM12 colon, 10.8 µM; with HCC-2998 colon, 16.9 µM. Besides, the TGI with CAKI-1 renal was 24 µM; in the assay on SF-295 CNS, 23.3 µM; with MCF7 breast, 27.5 µM; with DU-145 prostate, 23.6 µM; in the assay on A498 renal it was 33.9 µM; with 786-0 renal, 25.4 µM. Further, the TGI worked out at 27.3 µM in the assay with SN12C renal, 30.4 µM with HS 578T breast, 23.6 µM with KM12 colon and 33.9 µM in the assay with HCC-2998 colon.
As to `CCCc1n(Cc2ccc3ccccc3n2)cc[n+]1Cc1ccc2ccccc2n1`, the GI50 in the assay on SF-295 CNS was 3.57 µM; in the assay with MCF7 breast, 1.25 µM; in the assay on DU-145 prostate, 4.22 µM; in the assay on A498 renal, 7.21 µM; in the assay on 786-0 renal it was 11.2 µM; in the assay with SN12C renal, 2.23 µM. In addition, the GI50 in the assay on HS 578T breast was 3.54 µM; in the assay on KM12 colon, 0.991 µM; with HCC-2998 colon it was 0.985 µM. For the same compound, the TGI with SF-295 CNS was determined as 15.7 µM; in the assay with MCF7 breast it was 11.9 µM; in the assay with DU-145 prostate, 31.2 µM; with A498 renal, 35 µM; in the assay on 786-0 renal it was 24.2 µM; with SN12C renal, 11.8 µM. The TGI with HS 578T breast was 23 µM; in the assay on KM12 colon it was 11.9 µM; with HCC-2998 colon, 14.8 µM.
